Key:
[1] = Percentage of encapsulated RNA and RNA concentration of replicon liposomes (Quant-iT RiboGreen); assay type: physicochemical; conditions: for %E (% entrapment) 1st IM / Conc (Concentration of RNA) 1st IM: RSV-F replicon RNA LNP prepared for 1st immunization; for %E (% entrapment) 2nd IM / Conc (Concentration of RNA) 2nd IM: RSV-F replicon RNA LNP prepared for 2nd immunization
Protocol: RNA was encapsulated in liposomes made essentially by the method of Geall et al. (2012) PNAS vol. 109 (36): 14604-14609, Jeffs et al. (2005) Pharmaceutical Research 22 (3):362-372, and Maurer et al. (2001) Biophysical Journal, 80: 2310-2326 The liposomes were made of 10% DSPC (zwitterionic), 40% cationic lipid, 48% cholesterol and 2% PEG-conjugated DMG (2 kDa PEG). These proportions refer to the % moles in the total liposome.
Briefly, lipids were dissolved in ethanol (2 ml), a RNA replicon was dissolved in buffer (2 ml, 100 mM sodium citrate, pH 6) and these were mixed with 2 ml of buffer followed by 1 hour of equilibration. The mixture was then dialized overnight against 1×PBS. The resulting product contained liposomes, with ˜70-95% encapsulation efficiency. For in vitro and in vivo experiments formulations were diluted to the required RNA concentration with 1×PBS.
The percentage of encapsulated RNA and RNA concentration were determined by Quant-iT RiboGreen RNA reagent kit (Invitrogen), following manufacturer's instructions. The ribosomal RNA standard provided in the kit was used to generate a standard curve. Liposomes were diluted 10× or 100× in 1×TE buffer (from kit) before addition of the dye. Separately, liposomes were diluted 10× or 100× in 1×TE buffer containing 0.5% Triton X before addition of the dye (to disrupt the liposomes and thus to assay total RNA). Thereafter an equal amount of dye was added to each solution and then ˜180 μL of each solution after dye addition was loaded in duplicate into a 96 well tissue culture plate. The fluorescence (Ex 485 nm, Em 528 nm) was read on a microplate reader. All liposome formulations were dosed in vivo based on the encapsulated amount of RNA.
(§1) % entrapment (% E), Concentration of RNA (Conc), particle size measured by DLS, and polydispersity reported by DLS of LNPs prepared with different cationic lipids

[2] = Measurement of mRNA encapsulation in lipid nanoparticles (Quant-iT Ribogreen); assay type: physicochemical; conditions: Leptin mRNA in LNP
Protocol: All equipment and disposable supplies are certified free of RNase activity by the manufacturer or rendered RNase free by use of the RNaseZap reagent (LifeTechnologies). mRNA is encapsulated at a cationic lipid amine to mRNA phosphate (N:P) molar ratio of 4:1. Lipids (cationic lipid, DSPC, cholesterol and lipidated PEG or stealth lipid) are dissolved in ethanol. The molar ratios are 40:10:38:2, respectively. The mixture is sonicated briefly, then gently agitated for 5 minutes and then maintained at 37° C. until use. mRNA is exchanged into citrate buffer pH 5.8-6.0 by use of Amicon Ultra-15 centrifugal concentrators, and the final concentration is adjusted to 0.5 mg/ml and held at 37° C. until use. An equal volume of lipids in ethanol, mRNA in citrate buffer, and citrate buffer alone are drawn into disposable syringes.
Tubing leading from syringes containing lipids and mRNA are attached to the T junction, and tubing leading from the syringe containing citrate buffer alone is paired with the tubing exiting the T-junction over a collection vessel containing a stir bar on an active stir plate. Syringes are placed in a syringe pump set to expel contents at a flow rate of 1 ml per minute. The pump is activated, and the collected mRNA in lipid nanoparticles is transferred to SnakeSkin dialysis tubing (10,000 MWCO, Thermo Scientific). Material is dialyzed against RNAse- and pyrogen-free 1× phosphate buffered saline overnight at 4° C.
Percent encapsulation of mRNA in lipid nanoparticles is determined using the Quant-iT Ribogreen RNA Assay kit (Life Technologies). The LNP-mRNA suspension is assayed in buffer (mRNA outside the particle), and buffer plus Triton X-100 detergent (total mRNA). The difference calculated is the mRNA inside the particle. Prepare a 1000 ng/mL stock from the RNA provided in the kit and use this to generate a standard curve (0 ng/ml, 15.63-1000 ng/ml) in TE and TE+0.75% Triton X-100. Prepare LNP-mRNA samples in TE buffer and TE buffer+0.75% Triton X-100 with appropriate dilution so that reading is in the range of standard curve (400-2,000 fold). In a 384-well plate (Costar non-treated #3573) add 0.04 ml of standard (in duplicate) or sample (in triplicate) per well. Dilute Ribogreen reagent 240-fold in TE buffer and add 0.06 ml per well. Mix contents of wells and measure fluorescence (excitation=480 nm, emission=520 nm). Subtract background values (no RNA) from standard and test sample values and determine the concentrations of RNA in the samples using the standard curves. Determine the percent encapsulation of the sample by dividing the difference in concentrations between sample+triton and sample in buffer alone by the sample+triton concentration.

[3] = Polydispersity index (PDI) by dynamic light scattering; assay type: physicochemical; conditions: RSV-F replicon RNA LNP, DLS; for PDI 1st IM: 1st immunization; for PDI 2nd IM: 2nd immunization
Protocol: Unless indicated otherwise, all PDIs referred to herein are the PDI of the fully formed nanoparticle, as measured by dynamic light scattering on a Malvern Zetasizer. The nanoparticle sample was diluted in phosphate buffered saline (PBS) so that the count rate was approximately 200-400 kcts. The data is presented in Table 3 as a weighted average of the intensity measure.
as §1

[4] = Particle size of the lipid nanoparticle (Z-average, dynamic light scattering, Malvern Zetasizer); assay type: physicochemical; conditions: RSV-F replicon RNA LNP, DLS; for Size 1st IM: 1st immunization; for Size 2nd IM: 2nd immunization
Source text: The lipid nanoparticles have a size of about 1 to about 2,500 nm, about 10 to about 1,500 nm, about 20 to about 1,000 nm, in a sub-embodiment about 50 to about 600 nm, in a sub-embodiment about 50 to about 400 nm, in a sub-embodiment about 50 to about 250 nm, and in a sub-embodiment about 50 to about 150 nm. Unless indicated otherwise, all sizes referred to herein are the average sizes (diameters) of the fully formed nanoparticle, as measured by dynamic light scattering on a Malvern Zetasizer. The nanoparticle sample is diluted in phosphate buffered saline (PBS) so that the count rate is approximately 200-400 kcts. The data is presented as a weighted average of the intensity measure.
Unless indicated otherwise, all particle size measurements referred to in Table 3 are the Z-average particle size of the fully formed nanoparticle, as measured by dynamic light scattering on a Malvern Zetasizer. The nanoparticle sample was diluted in phosphate buffered saline (PBS) so that the count rate is approximately 200-400 kcts.
as §1

RSV F protein = assay: RSV immunogenicity: F-specific IgG titers after IM vaccination with liposome-formulated self-replicating RNA; assay type: in vivo; conditions: IM days 0 and 21, BALB/c mice, two weeks after two immunizations

Structure (SMILES)	%E (% entrapment) 1st IM [1] [%]	Conc (Concentration of RNA) 1st IM [1] [ng/mL]	%E (% entrapment) 2nd IM [1] [%]	Conc (Concentration of RNA) 2nd IM [1] [ng/mL]	% encapsulation mRNA Leptin [2] [%]	PDI 1st IM [3]	PDI 2nd IM [3]	Size 1st IM [4] [nm]	Size 2nd IM [4] [nm]	Immunogenicity (2wp2; log10 IgG titers) (RSV F protein; 0.1 ng replicon RNA) [log10 IgG titers]	Immunogenicity (2wp2; log10 IgG titers) (RSV F protein; 1 ng replicon RNA) [log10 IgG titers]
CCCCC/C=C\C/C=C\CCCCCCCC(=O)OCC(COC(=O)CCC(OCCCCCCCC)OCCCCCCCC)COC(=O)CCN(C)C (stereo not shown) [Example 32, (9Z,12Z)-3-((4,4-bis(octyloxy)butanoyl)oxy)-2-(((3-(dimethylamino)propanoyl)oxy)methyl)propyl octadeca-9,12-dienoate]	92.6	8810	94.72	9653	97.1	0.147	0.088	136.2	135	4.77	4.92
CCCCC/C=C\C/C=C\CCCCCCCC(=O)OCC(COC(=O)CCC(OCCCCCCCC)OCCCCCCCC)COC(=O)C1CCN(CC2CC2)CC1 (stereo not shown) [Example 34, 3-((4,4-bis(octyloxy)butanoyl)oxy)-2-(((9Z,12Z)-octadeca-9,12-dienoyloxy)methyl)propyl 1-(cyclopropylmethyl)piperidine-4-carboxylate]	75.5	9240	79.19	11495	97.1	0.116	0.11	136.2	135.4	3.73	4.36
CCCCC/C=C\C/C=C\CCCCCCCC(=O)OCC(COC(=O)CCC(OCCCCCCCC)OCCCCCCCC)COC(=O)C1CCN(C)C1 (stereo not shown) [Example 35, 3-((4,4-bis(octyloxy)butanoyl)oxy)-2-(((9Z,12Z)-octadeca-9,12-dienoyloxy)methyl)propyl 1-methylpyrrolidine-3-carboxylate]	93.46	10059	93.9	9937	97.3	0.119	0.108	135.2	137.5	4.53	4.86
CCCCC/C=C\C/C=C\CCCCCCCC(=O)OCC(COC(=O)CCC(OCCCCCCCC)OCCCCCCCC)COC(=O)C1(C)CCN(C)CC1 (stereo not shown) [Example 40, 3-((4,4-bis(octyloxy)butanoyl)oxy)-2-(((9Z,12Z)-octadeca-9,12-dienoyloxy)methyl)propyl 1,4-dimethylpiperidine-4-carboxylate]	71.1	9461	78.05	9650	97.2	0.122	0.118	141	137.3	4.31	4.74
CCCCC/C=C\C/C=C\CCCCCCCC(=O)OCC(COC(=O)CCC(OCCCCCCCC)OCCCCCCCC)COC(=O)OC1CCN(C)CC1 (stereo not shown) [Example 48, (9Z,12Z)-3-((4,4-bis(octyloxy)butanoyl)oxy)-2-(((((1-methylpiperidin-4-yl)oxy)carbonyl)oxy)methyl)propyl octadeca-9,12-dienoate]	86.169	9841	85.6	9665	92.8	0.091	0.075	137.9	134.2	4.58	5.02

From patent US10059655B2, “Lipids and lipid compositions for the delivery of active agents” (priority 2013, dated 2018)
